Reference: PubChem BioAssay (NCI)
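Compound exposure: 48 hours, 5 concentrations, 96-well plates. The concentration for 50% growth inhibition is given as GI50. Definition used: TGI = concentration required for complete inhibition of growth.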

How the values were obtained:
Test in all cases: inhibition of tumour cell growth, NCI panel, 48 h
IGROV1 ovarian = system: IGROV1 ovarian
SK-MEL-2 melanoma = system: SK-MEL-2 melanoma
UACC-257 melanoma = system: UACC-257 melanoma
TK-10 renal = system: TK-10 renal
MDA-MB-435 = system: MDA-MB-435
BT-549 breast = system: BT-549 breast
SW-620 colon = system: SW-620 colon
U251 CNS = system: U251 CNS
KM12 colon = system: KM12 colon
A549 NSCLC = system: A549 NSCLC
DU-145 prostate = system: DU-145 prostate
SK-MEL-28 melanoma = system: SK-MEL-28 melanoma
HT29 colon = system: HT29 colon
HS 578T breast = system: HS 578T breast
ACHN renal = system: ACHN renal
UACC-62 melanoma = system: UACC-62 melanoma
CAKI-1 renal = system: CAKI-1 renal
NCI-H460 lung = system: NCI-H460 lung
OVCAR-8 ovarian = system: OVCAR-8 ovarian
HCT-116 colon = system: HCT-116 colon
786-0 renal = system: 786-0 renal
RXF 393 renal = system: RXF 393 renal
SK-MEL-5 melanoma = system: SK-MEL-5 melanoma
NCI-H23 lung = system: NCI-H23 lung
M14 melanoma = system: M14 melanoma
COLO 205 colon = system: COLO 205 colon
OVCAR-4 ovarian = system: OVCAR-4 ovarian
SNB-19 CNS = system: SNB-19 CNS
LOX IMVI melanoma = system: LOX IMVI melanoma
MCF7 breast = system: MCF7 breast
SNB-75 CNS = system: SNB-75 CNS
MDA-MB-231 breast = system: MDA-MB-231 breast
RPMI-8226 leukemia = system: RPMI-8226 leukemia
OVCAR-3 ovarian = system: OVCAR-3 ovarian
EKVX NSCLC = system: EKVX NSCLC
NCI/ADR-RES ovarian = system: NCI/ADR-RES ovarian
PC-3 prostate = system: PC-3 prostate
SN12C renal = system: SN12C renal
NCI-H226 lung = system: NCI-H226 lung
CCRF-CEM leukemia = system: CCRF-CEM leukemia
K-562 leukemia = system: K-562 leukemia
T-47D breast = system: T-47D breast
SF-268 CNS = system: SF-268 CNS
OVCAR-5 ovarian = system: OVCAR-5 ovarian
HOP-62 NSCLC = system: HOP-62 NSCLC
UO-31 renal = system: UO-31 renal
SF-295 CNS = system: SF-295 CNS
HCT-15 colon = system: HCT-15 colon
SK-OV-3 ovarian = system: SK-OV-3 ovarian
NCI-H522 lung = system: NCI-H522 lung
MOLT-4 leukemia = system: MOLT-4 leukemia

In the case of `COc1cc([C@@H]2C[C@H]2c2cc(SC)n[nH]2)cc(OC)c1OC`, the GI50 (IGROV1 ovarian) is reported as 18.3 µM, the TGI (IGROV1 ovarian) is reported as greater than 100 µM and the GI50 (SK-MEL-2 melanoma) is reported as 25.6 µM. The TGI (SK-MEL-2 melanoma) was 67.2 µM, the GI50 (UACC-257 melanoma) was 17.7 µM and the TGI (UACC-257 melanoma) was 50.7 µM. The GI50 (TK-10 renal) was 22.5 µM, the TGI (TK-10 renal) was 52.5 µM and the GI50 (MDA-MB-435) was 11.2 µM. For the same compound, the TGI (MDA-MB-435) was 26.5 µM, the GI50 (BT-549 breast) was 16.2 µM and the TGI (BT-549 breast) was 42 µM. It also gave a GI50 (SW-620 colon) of 26.9 µM, a TGI (SW-620 colon) greater than 100 µM and a GI50 (U251 CNS) of 79.3 µM. It also gave a TGI (U251 CNS) greater than 100 µM, a GI50 (KM12 colon) of 15.2 µM and a TGI (KM12 colon) of 32.8 µM. For the same compound, the GI50 (A549 NSCLC) was 25.9 µM, the TGI (A549 NSCLC) was greater than 100 µM and the GI50 (DU-145 prostate) was 17.7 µM. For the same compound, the TGI (DU-145 prostate) was greater than 100 µM, the GI50 (SK-MEL-28 melanoma) was 23.5 µM and the TGI (SK-MEL-28 melanoma) was greater than 100 µM. The GI50 (HT29 colon) was 26.9 µM, the TGI (HT29 colon) was greater than 100 µM and the GI50 (HS 578T breast) was 15.1 µM. It also gave a TGI (HS 578T breast) of 45.2 µM, a GI50 (ACHN renal) of 30.3 µM and a TGI (ACHN renal) greater than 100 µM. The GI50 (UACC-62 melanoma) was 14 µM, the TGI (UACC-62 melanoma) was 43.6 µM and the GI50 (CAKI-1 renal) was 15.6 µM. The TGI (CAKI-1 renal) was 37.9 µM, the GI50 (NCI-H460 lung) was 17.7 µM and the TGI (NCI-H460 lung) was 41.7 µM. It also gave a GI50 (OVCAR-8 ovarian) of 14 µM, a TGI (OVCAR-8 ovarian) of 45.1 µM and a GI50 (HCT-116 colon) of 23.6 µM. It also gave a TGI (HCT-116 colon) of 85.7 µM, a GI50 (786-0 renal) of 18 µM and a TGI (786-0 renal) of 44.6 µM. The GI50 (RXF 393 renal) was 0.0483 µM, the TGI (RXF 393 renal) was 5.7 µM and the GI50 (SK-MEL-5 melanoma) was 14.7 µM. It also gave a TGI (SK-MEL-5 melanoma) of 29 µM, a GI50 (NCI-H23 lung) of 21.1 µM and a TGI (NCI-H23 lung) of 58 µM. For the same compound, the GI50 (M14 melanoma) was 13.9 µM, the TGI (M14 melanoma) was 28.5 µM and the GI50 (COLO 205 colon) was 20.5 µM. The TGI (COLO 205 colon) was 70 µM, the GI50 (OVCAR-4 ovarian) was 26.2 µM and the TGI (OVCAR-4 ovarian) was greater than 100 µM. The GI50 (SNB-19 CNS) was 35 µM, the TGI (SNB-19 CNS) was greater than 100 µM and the GI50 (LOX IMVI melanoma) was 93.9 µM. For the same compound, the TGI (LOX IMVI melanoma) was greater than 100 µM, the GI50 (MCF7 breast) was 18.8 µM and the TGI (MCF7 breast) was 41.2 µM. It also gave a GI50 (SNB-75 CNS) of 26.4 µM, a TGI (SNB-75 CNS) greater than 100 µM and a GI50 (MDA-MB-231 breast) of 12.1 µM. It also gave a TGI (MDA-MB-231 breast) of 33.2 µM, a GI50 (RPMI-8226 leukemia) of 12.6 µM and a TGI (RPMI-8226 leukemia) of 37.2 µM. It also gave a GI50 (OVCAR-3 ovarian) of 13.2 µM, a TGI (OVCAR-3 ovarian) of 30.5 µM and a GI50 (EKVX NSCLC) of 14.9 µM. For the same compound, the TGI (EKVX NSCLC) was 40.2 µM, the GI50 (NCI/ADR-RES ovarian) was 17.6 µM and the TGI (NCI/ADR-RES ovarian) was 49.3 µM. It also gave a GI50 (PC-3 prostate) of 18.1 µM, a TGI (PC-3 prostate) of 57.2 µM and a GI50 (SN12C renal) of 8.98 µM. For the same compound, the TGI (SN12C renal) was 31.8 µM, the GI50 (NCI-H226 lung) was 16.9 µM and the TGI (NCI-H226 lung) was 70.4 µM. It also gave a GI50 (CCRF-CEM leukemia) of 19.4 µM, a TGI (CCRF-CEM leukemia) greater than 100 µM and a GI50 (K-562 leukemia) of 21 µM. For the same compound, the TGI (K-562 leukemia) was greater than 100 µM, the GI50 (T-47D breast) was 16.5 µM and the TGI (T-47D breast) was greater than 100 µM. The GI50 (SF-268 CNS) was 15.1 µM, the TGI (SF-268 CNS) was 50 µM and the GI50 (OVCAR-5 ovarian) was 37.9 µM. For the same compound, the TGI (OVCAR-5 ovarian) was 90.1 µM, the GI50 (HOP-62 NSCLC) was 5.75 µM and the TGI (HOP-62 NSCLC) was 28.8 µM. For the same compound, the GI50 (UO-31 renal) was 23 µM, the TGI (UO-31 renal) was greater than 100 µM and the GI50 (SF-295 CNS) was 10.9 µM. For the same compound, the TGI (SF-295 CNS) was 28.5 µM, the GI50 (HCT-15 colon) was 22.8 µM and the TGI (HCT-15 colon) was 80.2 µM. The GI50 (SK-OV-3 ovarian) was 17.4 µM, the TGI (SK-OV-3 ovarian) was 65.2 µM and the GI50 (NCI-H522 lung) was 13.8 µM. It also gave a TGI (NCI-H522 lung) of 37.3 µM, a GI50 (MOLT-4 leukemia) of 20.3 µM and a TGI (MOLT-4 leukemia) greater than 100 µM.
